From ChEMBL document CHEMBL5291721, “A preclinical secondary pharmacology resource illuminates target-adverse drug reaction associations of marketed drugs” (Nat Commun, 2023)

Assays:
D(3) dopamine receptor = D(3) dopamine receptor (Homo sapiens, UniProt P35462)
[1] = molecular target: 3',5'-cyclic-AMP phosphodiesterase 4A (Homo sapiens, UniProt P27815); type: functional
[2] = molecular target: Glutamate receptor ionotropic, NMDA 1 (Rattus norvegicus, UniProt P35439)
Estrogen receptor = molecular target: T1, Estrogen receptor (Homo sapiens, UniProt P03372)
T1 sequence (P03372 whole entry): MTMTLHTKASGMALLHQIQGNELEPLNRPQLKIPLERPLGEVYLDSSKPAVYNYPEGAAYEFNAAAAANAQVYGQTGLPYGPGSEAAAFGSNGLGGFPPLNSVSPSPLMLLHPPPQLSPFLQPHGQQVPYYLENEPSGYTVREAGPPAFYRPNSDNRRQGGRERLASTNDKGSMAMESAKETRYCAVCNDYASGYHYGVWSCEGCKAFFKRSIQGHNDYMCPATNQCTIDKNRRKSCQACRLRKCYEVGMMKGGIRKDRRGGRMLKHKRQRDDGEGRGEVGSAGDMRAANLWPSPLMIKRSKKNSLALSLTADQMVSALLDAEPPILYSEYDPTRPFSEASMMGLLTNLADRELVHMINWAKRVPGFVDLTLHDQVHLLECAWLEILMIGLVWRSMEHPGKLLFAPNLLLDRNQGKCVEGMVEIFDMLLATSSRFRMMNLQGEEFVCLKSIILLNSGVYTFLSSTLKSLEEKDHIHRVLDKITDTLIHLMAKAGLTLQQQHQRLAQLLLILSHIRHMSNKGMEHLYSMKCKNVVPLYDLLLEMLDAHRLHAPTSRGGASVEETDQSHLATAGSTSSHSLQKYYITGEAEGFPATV

Thromboxane A2 receptor = molecular target: T2, Thromboxane A2 receptor (Homo sapiens, UniProt P21731); type: functional, cell-based
T2 sequence (P21731 whole entry): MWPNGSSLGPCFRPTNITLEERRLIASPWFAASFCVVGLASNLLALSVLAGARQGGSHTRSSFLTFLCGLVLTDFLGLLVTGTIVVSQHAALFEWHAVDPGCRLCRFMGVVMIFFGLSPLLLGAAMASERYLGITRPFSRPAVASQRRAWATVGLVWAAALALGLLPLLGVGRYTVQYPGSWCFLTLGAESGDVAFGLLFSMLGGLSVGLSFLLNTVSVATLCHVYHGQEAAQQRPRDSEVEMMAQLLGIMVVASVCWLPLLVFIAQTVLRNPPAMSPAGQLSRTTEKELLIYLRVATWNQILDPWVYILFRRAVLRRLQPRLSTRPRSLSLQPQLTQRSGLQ

Progesterone receptor = molecular target: T3, Progesterone receptor (Homo sapiens, UniProt P06401)
T3 sequence (P06401 whole entry): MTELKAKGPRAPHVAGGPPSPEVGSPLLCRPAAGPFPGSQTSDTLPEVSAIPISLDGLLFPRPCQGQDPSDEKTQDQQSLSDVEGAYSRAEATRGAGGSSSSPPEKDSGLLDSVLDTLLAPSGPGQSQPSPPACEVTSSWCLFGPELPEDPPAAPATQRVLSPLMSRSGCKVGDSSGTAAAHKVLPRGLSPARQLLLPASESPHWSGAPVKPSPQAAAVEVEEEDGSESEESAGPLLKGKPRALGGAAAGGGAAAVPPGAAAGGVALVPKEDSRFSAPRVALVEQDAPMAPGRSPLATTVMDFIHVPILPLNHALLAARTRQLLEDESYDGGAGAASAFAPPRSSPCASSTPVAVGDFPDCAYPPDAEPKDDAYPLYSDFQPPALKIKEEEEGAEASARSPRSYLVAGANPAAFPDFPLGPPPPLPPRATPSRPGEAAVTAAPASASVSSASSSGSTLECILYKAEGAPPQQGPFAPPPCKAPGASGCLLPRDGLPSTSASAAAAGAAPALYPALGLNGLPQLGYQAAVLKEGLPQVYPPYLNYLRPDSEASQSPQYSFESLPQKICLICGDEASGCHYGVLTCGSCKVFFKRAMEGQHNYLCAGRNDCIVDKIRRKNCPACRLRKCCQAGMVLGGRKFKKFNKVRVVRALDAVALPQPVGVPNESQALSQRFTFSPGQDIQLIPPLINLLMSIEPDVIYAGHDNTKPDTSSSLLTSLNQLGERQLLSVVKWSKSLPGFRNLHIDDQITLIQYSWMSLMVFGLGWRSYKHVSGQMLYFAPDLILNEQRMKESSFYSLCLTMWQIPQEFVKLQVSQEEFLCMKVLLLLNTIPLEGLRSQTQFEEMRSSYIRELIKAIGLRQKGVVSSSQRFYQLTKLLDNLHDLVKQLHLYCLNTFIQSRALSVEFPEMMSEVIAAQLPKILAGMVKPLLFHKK

[3] = molecular target: T4, Muscarinic acetylcholine receptor M2 (Homo sapiens, UniProt P08172); type: functional, cell-based
T4 sequence (P08172 whole entry): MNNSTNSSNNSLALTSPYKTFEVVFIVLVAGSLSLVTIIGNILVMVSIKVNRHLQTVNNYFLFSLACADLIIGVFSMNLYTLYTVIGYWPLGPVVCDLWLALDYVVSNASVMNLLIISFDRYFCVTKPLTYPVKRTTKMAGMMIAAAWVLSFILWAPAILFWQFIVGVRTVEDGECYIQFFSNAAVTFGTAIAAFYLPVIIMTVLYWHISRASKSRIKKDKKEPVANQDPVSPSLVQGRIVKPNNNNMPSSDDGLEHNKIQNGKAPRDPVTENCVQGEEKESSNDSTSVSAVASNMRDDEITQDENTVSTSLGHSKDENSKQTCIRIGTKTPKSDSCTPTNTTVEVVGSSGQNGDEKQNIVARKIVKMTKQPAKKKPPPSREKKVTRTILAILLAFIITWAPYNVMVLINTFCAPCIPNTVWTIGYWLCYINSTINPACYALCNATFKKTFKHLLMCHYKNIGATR

Histamine H1 receptor = Histamine H1 receptor (Homo sapiens, UniProt P35367)
[4] = molecular target: Muscarinic acetylcholine receptor M3 (Homo sapiens, UniProt P20309)
Note: assay procedure not described here.

Muscarinic acetylcholine receptor M3, sequence (P20309 whole entry): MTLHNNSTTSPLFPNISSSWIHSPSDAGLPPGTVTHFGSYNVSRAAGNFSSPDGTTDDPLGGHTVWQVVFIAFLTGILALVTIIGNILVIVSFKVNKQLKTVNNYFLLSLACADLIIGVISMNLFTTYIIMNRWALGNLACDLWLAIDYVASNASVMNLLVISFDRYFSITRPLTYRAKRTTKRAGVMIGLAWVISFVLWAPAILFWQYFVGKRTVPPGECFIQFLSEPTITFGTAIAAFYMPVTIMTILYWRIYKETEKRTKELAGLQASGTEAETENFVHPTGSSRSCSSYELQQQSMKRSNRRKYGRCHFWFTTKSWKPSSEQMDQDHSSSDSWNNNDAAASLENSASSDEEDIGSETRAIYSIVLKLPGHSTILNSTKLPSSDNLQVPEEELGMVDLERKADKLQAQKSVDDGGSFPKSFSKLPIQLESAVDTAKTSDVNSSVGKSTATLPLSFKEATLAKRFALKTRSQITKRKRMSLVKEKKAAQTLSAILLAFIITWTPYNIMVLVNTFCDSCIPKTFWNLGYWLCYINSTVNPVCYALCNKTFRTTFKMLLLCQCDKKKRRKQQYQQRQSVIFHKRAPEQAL
Histamine H1 receptor, sequence (P35367 whole entry): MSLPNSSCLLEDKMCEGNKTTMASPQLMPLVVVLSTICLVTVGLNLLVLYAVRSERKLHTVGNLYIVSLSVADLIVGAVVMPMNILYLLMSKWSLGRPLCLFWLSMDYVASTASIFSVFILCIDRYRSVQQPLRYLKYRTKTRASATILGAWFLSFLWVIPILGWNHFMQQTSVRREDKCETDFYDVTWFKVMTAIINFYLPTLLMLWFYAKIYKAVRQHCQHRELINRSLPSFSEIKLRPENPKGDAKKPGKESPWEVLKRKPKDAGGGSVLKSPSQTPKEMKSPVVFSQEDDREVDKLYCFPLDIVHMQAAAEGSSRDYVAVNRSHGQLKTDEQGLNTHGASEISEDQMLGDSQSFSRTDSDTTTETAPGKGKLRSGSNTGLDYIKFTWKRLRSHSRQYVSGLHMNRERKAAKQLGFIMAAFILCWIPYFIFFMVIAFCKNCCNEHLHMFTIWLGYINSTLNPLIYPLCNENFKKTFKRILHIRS
D(3) dopamine receptor, sequence (P35462 whole entry): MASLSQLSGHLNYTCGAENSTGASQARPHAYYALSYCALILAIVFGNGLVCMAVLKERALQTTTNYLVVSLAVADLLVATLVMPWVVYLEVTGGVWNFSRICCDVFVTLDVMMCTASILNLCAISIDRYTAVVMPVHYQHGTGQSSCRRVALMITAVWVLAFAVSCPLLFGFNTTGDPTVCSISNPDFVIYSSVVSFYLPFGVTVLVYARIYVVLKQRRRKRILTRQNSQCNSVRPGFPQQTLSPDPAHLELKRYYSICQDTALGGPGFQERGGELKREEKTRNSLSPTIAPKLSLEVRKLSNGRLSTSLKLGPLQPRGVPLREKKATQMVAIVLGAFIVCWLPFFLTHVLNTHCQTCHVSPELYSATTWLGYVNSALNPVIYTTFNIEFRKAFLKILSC
3',5'-cyclic-AMP phosphodiesterase 4A, sequence (P27815 whole entry): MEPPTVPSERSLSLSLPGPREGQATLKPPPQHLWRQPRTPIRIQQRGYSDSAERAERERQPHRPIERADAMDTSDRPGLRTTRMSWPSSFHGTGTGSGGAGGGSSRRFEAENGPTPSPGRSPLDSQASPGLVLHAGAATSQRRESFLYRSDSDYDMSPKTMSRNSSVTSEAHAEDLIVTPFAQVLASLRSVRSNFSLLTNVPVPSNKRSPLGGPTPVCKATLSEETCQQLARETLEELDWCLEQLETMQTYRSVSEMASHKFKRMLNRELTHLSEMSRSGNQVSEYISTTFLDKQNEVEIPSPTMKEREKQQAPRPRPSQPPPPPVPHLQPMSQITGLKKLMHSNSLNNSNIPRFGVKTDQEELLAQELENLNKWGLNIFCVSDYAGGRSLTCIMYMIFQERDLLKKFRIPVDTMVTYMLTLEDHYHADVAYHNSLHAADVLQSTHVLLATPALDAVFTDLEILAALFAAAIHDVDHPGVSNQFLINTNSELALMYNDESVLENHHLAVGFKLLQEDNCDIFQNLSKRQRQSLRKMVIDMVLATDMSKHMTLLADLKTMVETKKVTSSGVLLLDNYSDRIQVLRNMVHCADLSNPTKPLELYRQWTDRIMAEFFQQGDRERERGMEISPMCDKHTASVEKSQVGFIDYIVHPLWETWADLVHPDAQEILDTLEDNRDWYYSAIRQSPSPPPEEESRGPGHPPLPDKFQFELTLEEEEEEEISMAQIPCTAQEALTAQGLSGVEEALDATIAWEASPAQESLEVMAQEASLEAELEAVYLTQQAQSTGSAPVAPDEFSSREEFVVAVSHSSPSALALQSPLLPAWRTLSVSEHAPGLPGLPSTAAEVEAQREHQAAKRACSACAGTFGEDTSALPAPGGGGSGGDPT

SMILES	AC50 (D(3) dopamine receptor) [µM]	AC50 [1] [µM]	AC50 [2] [µM]	AC50 (Estrogen receptor) [µM]	AC50 (Thromboxane A2 receptor) [µM]	AC50 (Progesterone receptor) [µM]	AC50 [3] [µM]	AC50 (Histamine H1 receptor) [µM]	AC50 [4] [µM]
Nc1nc(N)c2nc(-c3ccccc3)c(N)nc2n1	> 30	20.8	> 30	> 30	> 30	> 30	> 30	–	–
Oc1ncnc2[nH]ncc12 [ALLOPURINOL]	> 30	> 30	> 10	> 30	> 30	> 30	> 10	–	–
COc1cc(Nc2c(C#N)cnc3cc(OCCCN4CCN(C)CC4)c(OC)cc23)c(Cl)cc1Cl [BOSUTINIB]	3.01	> 30	> 10	> 30	> 10	7.75	–	> 10	–
CN(CCOc1ccc(NS(C)(=O)=O)cc1)CCc1ccc(NS(C)(=O)=O)cc1 [DOFETILIDE]	3.36	> 30	> 10	> 30	> 30	> 30	> 30	> 10	> 10
COc1cc2c(cc1OC)C(=O)C(CC1CCN(Cc3ccccc3)CC1)C2 (stereo unspecified) [DONEPEZIL]	–	> 30	–	> 30	> 30	> 30	–	> 10	> 30
CC(C)C(=O)Nc1ccc([N+](=O)[O-])c(C(F)(F)F)c1 [FLUTAMIDE]	> 30	> 30	> 10	> 30	> 30	> 30	> 10	–	–
OCCN1CCN(CCCN2c3ccccc3C=Cc3ccccc32)CC1 [OPIPRAMOL]	0.42	> 30	> 30	> 30	> 30	> 30	> 30	0.081	> 30
CCc1ccc(CCOc2ccc(CC3SC(=O)NC3=O)cc2)nc1 (stereo unspecified) [PIOGLITAZONE]	> 30	> 10	> 10	> 30	> 30	> 30	> 10	–	–
CC(C(=O)O)c1ccc(N2CC=CC2)c(Cl)c1 (stereo unspecified) [PIRPROFEN]	> 30	> 30	> 10	> 30	> 30	> 30	> 10	> 10	> 10
NC(=O)c1cnccn1 [PYRAZINAMIDE]	> 30	> 30	> 30	> 30	> 30	> 30	> 30	–	–
O=C(NC[C@H]1CN(c2ccc(N3CCOCC3=O)cc2)C(=O)O1)c1ccc(Cl)s1 [RIVAROXABAN]	> 30	> 30	> 30	> 30	> 30	> 30	> 30	> 30	> 30
CS(=O)(=O)c1ccc([C@@H](O)[C@@H](CO)NC(=O)C(Cl)Cl)cc1 [THIAMPHENICOL]	> 30	> 30	> 30	> 30	> 30	> 30	> 30	–	–
